Reference: ChEMBL document CHEMBL1201862, “PubChem BioAssay data set” (2004)
Activity calls are given as the source filed them.

Assays:
[1] = target: Large T antigen (Simian virus 40, UniProt P03070); type: functional, Betapolyomavirus macacae;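 note: Confirmatory-stage PubChem screen for compounds that inhibit SV40 T antigen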
[2] = target: T1, Heat shock factor protein 1 (Mus musculus, UniProt P38532); assay: enhancement of HSF1-driven luciferase signal – cell-based, NIH3T3, luminescence, dose retest, confirmation (AID 435004); type: functional;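 note: stress induced by proteasome inhibitor MG132 added 30 min after compound; luciferase reporter driven by HSF1 response element in NIH3T3 cells; actives raise luminescence as potentiators of the MG132 stress response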
T1 sequence (P38532 whole entry): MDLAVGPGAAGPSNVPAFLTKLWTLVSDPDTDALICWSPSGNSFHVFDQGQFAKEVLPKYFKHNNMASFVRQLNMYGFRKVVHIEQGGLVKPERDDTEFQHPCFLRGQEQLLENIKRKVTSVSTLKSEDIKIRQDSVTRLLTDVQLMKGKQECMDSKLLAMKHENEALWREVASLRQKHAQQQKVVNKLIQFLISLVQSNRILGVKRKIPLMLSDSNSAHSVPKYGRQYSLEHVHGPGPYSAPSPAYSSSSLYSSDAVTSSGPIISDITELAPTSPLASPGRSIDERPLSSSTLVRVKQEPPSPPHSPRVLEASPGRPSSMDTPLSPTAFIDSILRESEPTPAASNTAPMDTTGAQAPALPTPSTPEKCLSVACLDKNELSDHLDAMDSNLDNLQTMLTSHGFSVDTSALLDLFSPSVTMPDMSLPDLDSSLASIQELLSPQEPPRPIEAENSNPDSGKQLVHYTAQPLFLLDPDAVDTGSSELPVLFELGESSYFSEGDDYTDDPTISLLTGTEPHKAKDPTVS

[3] = target: T2, Rac GTPase-activating protein 1 (Homo sapiens, UniProt Q9H0H5); assay: blockers of MgcRacGAP-driven Rac1 GTP hydrolysis – biochemical, ADP Hunter fluorescence, primary and confirmatory, confirmation (AID 624330); type: functional
T2 sequence (Q9H0H5 whole entry): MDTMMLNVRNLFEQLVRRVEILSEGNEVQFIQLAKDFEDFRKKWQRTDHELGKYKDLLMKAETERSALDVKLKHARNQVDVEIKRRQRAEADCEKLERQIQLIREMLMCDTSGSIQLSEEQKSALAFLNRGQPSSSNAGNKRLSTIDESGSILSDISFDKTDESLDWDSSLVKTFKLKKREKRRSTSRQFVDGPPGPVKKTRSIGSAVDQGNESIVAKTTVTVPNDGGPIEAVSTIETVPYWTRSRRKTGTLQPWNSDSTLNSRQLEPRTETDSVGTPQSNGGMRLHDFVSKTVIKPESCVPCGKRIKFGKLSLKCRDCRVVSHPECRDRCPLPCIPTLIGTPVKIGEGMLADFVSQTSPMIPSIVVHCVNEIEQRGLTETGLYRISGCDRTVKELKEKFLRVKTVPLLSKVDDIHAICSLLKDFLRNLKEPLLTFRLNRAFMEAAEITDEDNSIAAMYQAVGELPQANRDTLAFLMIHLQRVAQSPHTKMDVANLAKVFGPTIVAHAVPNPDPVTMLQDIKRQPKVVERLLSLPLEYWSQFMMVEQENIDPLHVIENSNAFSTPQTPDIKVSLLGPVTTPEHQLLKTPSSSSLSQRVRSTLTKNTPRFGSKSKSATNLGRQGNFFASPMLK

[4] = target: T3, Microphthalmia-associated transcription factor (Homo sapiens, UniProt O75030); assay: reducers of TRPM1 reporter luminescence, concentration series – cell-based, SK-MEL-5, cherry-picked, set 3, MITF inhibitor project, dose response (AID 493073); type: functional;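 note: SK-MEL-5 melanoma cells with luciferase driven by the MITF target TRPM1 promoter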
T3 sequence (O75030 whole entry): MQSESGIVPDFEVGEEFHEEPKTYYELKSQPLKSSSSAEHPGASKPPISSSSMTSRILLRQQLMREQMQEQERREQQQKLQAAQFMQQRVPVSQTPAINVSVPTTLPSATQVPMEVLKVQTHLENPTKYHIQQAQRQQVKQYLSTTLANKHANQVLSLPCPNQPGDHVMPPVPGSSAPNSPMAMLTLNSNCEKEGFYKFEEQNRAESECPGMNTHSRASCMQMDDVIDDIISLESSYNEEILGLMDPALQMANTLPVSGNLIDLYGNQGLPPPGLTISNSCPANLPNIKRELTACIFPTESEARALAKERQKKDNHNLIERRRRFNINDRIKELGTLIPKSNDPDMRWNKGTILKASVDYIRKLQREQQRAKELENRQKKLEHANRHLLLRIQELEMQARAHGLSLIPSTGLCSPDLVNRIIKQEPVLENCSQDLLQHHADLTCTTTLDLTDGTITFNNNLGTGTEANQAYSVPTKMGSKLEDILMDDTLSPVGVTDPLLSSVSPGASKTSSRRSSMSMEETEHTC

[5] = target: FAD-linked sulfhydryl oxidase ALR (Homo sapiens, UniProt P55789); assay: ALR-catalysed DTT oxidation blockers – biochemical, H2O2 detection, luminescence, cherry-pick, dose response (AID 493248)
[6] = NIH-3T3 fibroblast cytotoxicity, dose response, cytotoxicity control, cell-based, fluorescence, Alamar Blue, secondary assay (AID 2327); type: functional;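 note: NIH-3T3 mouse fibroblasts cultured with fluconazole at 8 µg/mL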
[7] = fluconazole-exposed Candida albicans growth modulators – fluorescence, retest, confirmation (AID 2467); type: functional, cell-based
[8] = target: T4, Calpain-2 catalytic subunit (Sus scrofa, UniProt P43367); assay: m-calpain protease blockers, concentration series – biochemical, fluorogenic peptide substrate, dose response (AID 1420); type: functional
T4 sequence (P43367 whole entry): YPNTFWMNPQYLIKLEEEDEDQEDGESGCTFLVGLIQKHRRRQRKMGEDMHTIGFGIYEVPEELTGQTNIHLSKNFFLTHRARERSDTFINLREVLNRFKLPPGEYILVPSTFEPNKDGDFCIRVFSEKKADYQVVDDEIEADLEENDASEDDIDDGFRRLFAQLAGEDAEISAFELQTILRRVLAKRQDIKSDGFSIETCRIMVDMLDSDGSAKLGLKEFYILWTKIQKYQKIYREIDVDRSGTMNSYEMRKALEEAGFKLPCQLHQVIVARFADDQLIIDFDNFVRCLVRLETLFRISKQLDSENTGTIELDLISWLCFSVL

[9] = Luminescence Cell-Based Dose Confirmation HTS to Identify Activators of 5'UTR Stem-Loop Driven Alpha-Synuclein mRNA Translation in H4 Neuroglioblastoma Cells. [Related pubchem assays: 1829 (Project Summary), 1814 (Primary HTS)]; type: functional
[10] = test system: H4; assay: Luminescence Cell-Based Dose Response HTS to Identify Activators of 5'UTR Stem-Loop Driven Prion Protein mRNA Translation in H4 Neuroglioblastoma Cells. [Related pubchem assays: 1829 (Project Summary), 1814 (Primary HTS)]; type: functional; conditions: Homo sapiens
[11] = Luminescence Cell-Based Dose Response HTS to Identify Activators of Luciferase Translation or Activity in H4 […] Cells. [Related pubchem assays: 1829 (Project Summary), 1814 (Primary HTS)]; type: functional
[12] = NIH3T3 cell viability loss – ATP luminescence, mouse fibroblasts, counter-screen, dose response (AID 2010); type: functional, cell-based;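 note: cells exposed to compound for about 90 hours before reading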
[13] = Trypanosoma cruzi growth suppression in host cells – NIH3T3 host cells, beta-gal luminescence, confirmation (AID 2044); type: functional, cell-based;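 note: intracellular parasites grown in NIH/3T3 mouse fibroblasts as host cells; luminescent beta-galactosidase reporter signal from transgenic T. cruzi replicating inside host cells; inhibitors lower the luminescence signal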
[14] = target: T5, Carboxy-terminal domain RNA polymerase II polypeptide A small phosphatase 1 (Homo sapiens, UniProt Q9GZU7); assay: CTDSP1 inhibitors, concentration-response, biochemical, absorbance readout, ultra-high-throughput screen actives (AID 540297); type: functional
T5 sequence (Q9GZU7 whole entry): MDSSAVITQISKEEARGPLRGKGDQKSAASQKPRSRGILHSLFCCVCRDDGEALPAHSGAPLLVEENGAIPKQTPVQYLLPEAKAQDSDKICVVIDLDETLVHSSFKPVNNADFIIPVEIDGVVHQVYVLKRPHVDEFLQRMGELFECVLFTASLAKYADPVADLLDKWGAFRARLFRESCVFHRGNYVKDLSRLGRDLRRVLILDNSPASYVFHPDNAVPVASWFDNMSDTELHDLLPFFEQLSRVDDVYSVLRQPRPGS

[15] = test system: INS1; assay: INS-1E survival protection against cytokine death – cell-based, luminescence, retest, dose response (AID 449756); type: functional; conditions: Rattus norvegicus;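 note: cell death triggered by IL-1 beta plus TNF-alpha plus IFN-gamma mixture; protective hits raise ATP signal compared with cytokine alone wells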
[16] = target: Paired box protein Pax-8 (Homo sapiens, UniProt Q06710); assay: PAX8 transcriptional activity inhibition in RMG-I – RMG-I cells, luciferase, cherry-pick, dose response (AID 687027); type: functional, cell-based;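 note: luciferase reporter driven by Pax8 target thyroperoxidase promoter measured by SteadyGlo luminescence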
[17] = target: T1, Heat shock factor protein 1; assay: decrease of HSF1-responsive luciferase luminescence – cell-based, NIH3T3, dose retest, confirmation (AID 2382); type: functional;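 note: NIH3T3 fibroblasts with HSF1-driven luciferase reporter stressed by proteasome inhibitor MG132; luminescence from HSF1-driven luciferase expression after 8 hours of MG132 stress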

Sequence of FAD-linked sulfhydryl oxidase ALR (P55789 whole entry): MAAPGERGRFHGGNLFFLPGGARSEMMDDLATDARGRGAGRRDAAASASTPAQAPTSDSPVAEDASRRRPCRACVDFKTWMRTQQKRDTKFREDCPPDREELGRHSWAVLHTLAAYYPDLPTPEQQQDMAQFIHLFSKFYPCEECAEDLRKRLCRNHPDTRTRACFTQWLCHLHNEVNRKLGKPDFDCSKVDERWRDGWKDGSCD
Sequence of Large T antigen (P03070 whole entry): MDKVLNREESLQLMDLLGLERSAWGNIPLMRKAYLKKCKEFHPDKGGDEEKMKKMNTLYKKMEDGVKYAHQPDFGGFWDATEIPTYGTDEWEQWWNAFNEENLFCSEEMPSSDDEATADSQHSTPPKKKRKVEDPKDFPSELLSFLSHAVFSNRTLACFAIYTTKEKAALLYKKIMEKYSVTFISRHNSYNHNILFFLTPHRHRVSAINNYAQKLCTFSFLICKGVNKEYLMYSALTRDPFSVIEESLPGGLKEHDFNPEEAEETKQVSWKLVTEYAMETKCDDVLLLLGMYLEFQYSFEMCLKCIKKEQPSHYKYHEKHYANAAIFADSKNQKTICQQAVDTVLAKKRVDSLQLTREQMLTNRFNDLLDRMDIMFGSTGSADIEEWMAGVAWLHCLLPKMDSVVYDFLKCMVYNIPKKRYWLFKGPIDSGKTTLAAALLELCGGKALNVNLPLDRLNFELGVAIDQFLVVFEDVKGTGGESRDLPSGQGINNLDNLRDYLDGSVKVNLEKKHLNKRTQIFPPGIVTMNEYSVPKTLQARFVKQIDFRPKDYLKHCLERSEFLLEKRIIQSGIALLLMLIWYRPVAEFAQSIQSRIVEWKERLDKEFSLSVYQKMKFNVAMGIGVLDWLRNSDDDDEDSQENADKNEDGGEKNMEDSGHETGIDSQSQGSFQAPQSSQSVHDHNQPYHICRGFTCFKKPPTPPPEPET
Sequence of Paired box protein Pax-8 (Q06710 whole entry): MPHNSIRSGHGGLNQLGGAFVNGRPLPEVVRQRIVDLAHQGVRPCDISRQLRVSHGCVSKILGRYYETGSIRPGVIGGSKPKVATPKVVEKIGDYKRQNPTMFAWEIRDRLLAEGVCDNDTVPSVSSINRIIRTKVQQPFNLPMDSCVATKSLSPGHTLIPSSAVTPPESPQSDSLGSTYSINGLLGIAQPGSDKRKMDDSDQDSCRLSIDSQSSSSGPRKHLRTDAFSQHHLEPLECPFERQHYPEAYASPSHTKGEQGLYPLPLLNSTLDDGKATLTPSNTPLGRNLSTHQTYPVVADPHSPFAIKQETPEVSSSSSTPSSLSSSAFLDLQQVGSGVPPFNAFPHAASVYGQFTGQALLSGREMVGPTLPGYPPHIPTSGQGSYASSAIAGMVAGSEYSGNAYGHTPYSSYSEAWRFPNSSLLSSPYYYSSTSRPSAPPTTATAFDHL

SMILES: COc1ccc(Nc2ccc(Cl)cc2)c(C(=O)O)c1
- IC50 [1]: 18 µM (active)

SMILES: COc1ccc(CCNC(=O)Nc2cccc([N+](=O)[O-])c2)cc1OC
- EC50 [2]: > 260 µM (inactive)

SMILES: CN(C)c1ccc(NC2=C([N+](=O)[O-])CS(=O)(=O)C2)cc1
- IC50 [3]: 42.7 µM (active)
- IC50 [1]: 5.71 µM (active)

SMILES: Cc1cccc2sc(N(CCCN(C)C)C(=O)c3nc4ccccc4s3)nc12
- AC50 [4]: 10.9 µM (active)

SMILES: CC(NC(=O)C(=O)N1CCCCC1)C(c1cccs1)N1CCN(c2ccccc2)CC1 (configuration not stated)
- AC50 [5]: 1.16 µM (active)

SMILES: Cc1ccc(O)c(NC(=O)CSc2n[nH]c(-c3ccccc3)n2)c1
- EC50 [2]: 10 µM (active)

SMILES: CCN(CC)C(=O)/C(=C/c1ccc2c(c1)OCO2)NC(=O)c1ccc(Br)cc1
- EC50 [6]: > 150 µM (inactive)
- EC50 [7]: 3.58 µM (active)

SMILES: O=c1c2ccccc2nc(SCc2nnc(-c3ccccc3Br)o2)n1Cc1ccco1
- EC50 [2]: > 260 µM (inactive)

SMILES: c1cnc2c(OCc3nc4ccccc4[nH]3)cccc2c1
- IC50 [8]: 7.55 µM (not active)
- EC50 [9]: 0.396 µM (active)
- EC50 [10]: 5.66 µM (active)
- EC50 [11]: 7.06 µM (active)

SMILES: O=C1CSC(c2cccc(F)c2)N1c1ccccc1 (configuration not stated)
- AC50 [5]: 1.22 µM (active)

SMILES: CC1CN(C(=S)NC(=O)C2CCCCC2)CC(C)O1 (configuration not stated)
- EC50 [2]: > 260 µM (inactive)

SMILES: CCc1cc2c(Nc3ccc(O)cc3)nc(C)nc2s1
- IC50 [1]: 23.7 µM (active)

SMILES: CC(C)OC(=O)c1c(NC(=O)Cn2cnc([N+](=O)[O-])n2)sc2c1CCCC2
- EC50 [2]: > 260 µM (inactive)
- EC50 [12]: > 60 µM (not active)
- EC50 [13]: 0.203 µM (active)

SMILES: C=C1CCC[C@]2(C)C[C@H]3OC(=O)C(CN4CCCCC4CO)[C@H]3CC12 (some centres not stated)
- AC50 [4]: 11 µM (active)

SMILES: COc1c(Cl)cc(C(=O)Nc2ccccc2-c2ccccc2)cc1Cl
- IC50 [8]: > 50 µM (not active)

SMILES: O=C(Nc1ccnc(O)n1)c1sc2ccccc2c1Cl
- IC50 [14]: 16.2 µM (active)

SMILES: Cc1ccc(C(=O)N(Cc2ccccc2)C(C)(C)C)cc1C
- IC50 [8]: 16.6 µM (not active)

SMILES: CN(C)c1ccc(/C=C/c2cc[n+](C)cc2)cc1
- EC50 [12]: > 60 µM (not active)
- AC50 [5]: 0.416 µM (active)
- EC50 [13]: 0.723 µM (active)

SMILES: CCCCN(CC)CCCN=C(S)Nc1ccc2nc3n(c(=O)c2c1)CCCCC3
- IC50 [8]: < 0.4 µM (not active)
- EC50 [12]: > 60 µM (not active)
- EC50 [13]: 1.29 µM (active)

SMILES: CCCCNC(=O)COC(=O)c1c2c(nc3ccccc13)CCC2
- IC50 [14]: 9.63 µM (active)

SMILES: CC1=C(C(=O)c2ccccc2)C(c2ccc(O)cc2)NC(S)=N1 (configuration not stated)
- IC50 [1]: > 100 µM (active)

SMILES: COc1ccc([N+](=O)[O-])cc1NC(=O)CSc1ccc2ccccc2c1
- IC50 [8]: 2.92 µM (not active)

SMILES: O=C(N/N=C/C=C(\O)c1ccc([N+](=O)[O-])cc1)c1ccccc1
- AC50 [15]: 1.76 µM (active)
- EC50 [12]: 17.6 µM (active)
- AC50 [4]: 9.19 µM (active)
- EC50 [13]: 2.02 µM (active)

SMILES: Cc1ccc(-n2cc(CNCCN3CCOC3=O)c(-c3cccc(C)c3)n2)cc1
- EC50 [2]: > 260 µM (inactive)

SMILES: O=C(C1CCC(=O)N(C2CC2)C1)N1CCN(c2ccc(Cl)cc2)CC1 (configuration not stated)
- AC50 [5]: 15.8 µM (active)

SMILES: O=C(CC1C(=O)NCCN1Cc1ccc(F)cc1)NCCN1CCCc2ccccc21 (configuration not stated)
- AC50 [5]: 3.16 µM (active)

SMILES: CCCCCCCCC(=O)NNC(=O)c1c(O)c2ccccc2n(CC)c1=O
- EC50 [6]: > 150 µM (inactive)
- EC50 [7]: 2.96 µM (active)

SMILES: Cc1cccc(Nc2ncccc2C(=O)NCc2cccs2)c1C
- IC50 [8]: 14.4 µM (not active)

SMILES: CSc1sc(C(=O)Nc2ccc(F)cc2F)c2c1C=CCC2
- EC50 [2]: > 260 µM (inactive)

SMILES: CNC(=O)COC(=O)CNC(=O)c1cc(Cl)cc([N+](=O)[O-])c1
- IC50 [8]: > 50 µM (not active)

SMILES: CCc1cc2c(=O)n(Cc3ccccc3)c(SC3CCOC3=O)nc2s1 (configuration not stated)
- IC50 [8]: 12.6 µM (not active)

SMILES: Cc1c(C=O)c2ccccc2n1CC(=O)NC(C)c1ccccc1 (configuration not stated)
- IC50 [8]: > 50 µM (not active)

SMILES: Cc1ccc(-c2nc3ccc(Cl)cc3c(=O)n2O)cc1
- EC50 [6]: > 160 µM (inactive)
- EC50 [7]: 1.58 µM (active)

SMILES: CCC(=O)N1CCN(c2ccc(NC(=O)c3ccc([N+](=O)[O-])o3)cc2)CC1
- EC50 [12]: 7.54 µM (active)
- AC50 [4]: 8.68 µM (active)
- AC50 [16]: 5.31 µM (active)
- EC50 [17]: > 195 µM (not active)
- EC50 [13]: 5.98 µM (active)

SMILES: CCOc1c(Br)cc(CNc2ccc(N3CCN(C(C)=O)CC3)cc2)cc1OC
- IC50 [1]: 6.23 µM (active)

SMILES: CCN(CC)c1ccc(NC(=O)CSc2nc3nc(C)cc(C)c3c(=O)[nH]2)cc1
- IC50 [1]: 10.2 µM (active)

SMILES: CSCc1ccc(C(=O)NC(C)c2ccc(-n3ccnc3)cc2)cc1 (configuration not stated)
- AC50 [5]: 1.33 µM (active)
